The text below walks through data of publication PMC13266984 (Journal of medicinal chemistry, 2026).

Molecules are shown by their SMILES.

In one assay the target is T1, Human ALDH3A1 (Homo sapiens, UniProt P30838).
T1 sequence (P30838 1-453): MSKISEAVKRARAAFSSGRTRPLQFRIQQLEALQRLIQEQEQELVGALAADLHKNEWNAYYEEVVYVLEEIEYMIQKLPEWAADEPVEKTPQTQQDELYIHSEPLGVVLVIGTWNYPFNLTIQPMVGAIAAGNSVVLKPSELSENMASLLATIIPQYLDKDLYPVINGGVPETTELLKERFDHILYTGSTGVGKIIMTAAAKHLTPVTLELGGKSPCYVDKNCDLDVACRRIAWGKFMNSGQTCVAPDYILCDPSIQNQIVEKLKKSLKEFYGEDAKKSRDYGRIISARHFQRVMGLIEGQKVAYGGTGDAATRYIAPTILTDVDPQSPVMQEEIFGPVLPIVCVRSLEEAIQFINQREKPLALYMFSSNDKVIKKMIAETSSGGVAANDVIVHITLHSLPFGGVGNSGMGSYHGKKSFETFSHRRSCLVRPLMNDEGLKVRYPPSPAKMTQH
As to the kind of experiment: ALDH3A1 biochemical assay (benzaldehyde/NADP+, diaphorase-resazurin readout, 1,536-well).

Another assay concerns the target T2, OE19 (3A1) (Homo sapiens, UniProt P30838).
T2 sequence (P30838 1-453): T1 sequence (P30838 1-453)
As to the kind of experiment: Cellular ALDEFLUOR assay in OE19 cells (preferential ALDH3A1 expression).

[1] abbreviates: Table S4, biochemical curve class.
Where [2] appears, read: Table S5, biochemical curve class.

Usually AC50 stands for the midpoint of the concentration-response curve, whichever way the signal moves. Take `Cc1cccc(CNC(=O)c2csc(N3CCN(c4c(F)cccc4F)CC3)n2)c1` [NCGC01211383-01]: the values for the AC50 at Human ALDH3A1 and at OE19 (3A1) were 910 nM and 15700 nM, respectively. Besides, on Human ALDH3A1 (Table S4, biochemical), the Efficacy is -88.99. The compound further returned a CC-v2 at Human ALDH3A1 (setting [1]) of -1.1. Further, at OE19 (3A1) (Table S4, OE19 cells), the Cell_Efficacy is recorded as -112.70. The compound further came in with a Cell_CC-v2 on OE19 (3A1) (Table S4, cellular curve class) of -2.1.
For `Cc1cccc(CNC(=O)c2csc(N3CCN(c4ccc(O)cc4)CC3)n2)c1` [NCGC01211126-01], the values for the AC50 on Human ALDH3A1 and on OE19 (3A1) were 5760 nM and 15700 nM, respectively. On Human ALDH3A1 (Table S4, biochemical), the Efficacy is -62.10. This compound gave a CC-v2 at Human ALDH3A1 (setting [1]) of -1.2. On OE19 (3A1) (Table S4, OE19 cells), this compound gave a Cell_Efficacy of -68.34. In addition, the Cell_CC-v2 on OE19 (3A1) (Table S4, cellular curve class) was -1.2.
For `Cc1cccc(CNC(=O)c2csc(N3CCN(c4ccc(C(F)(F)F)cc4)CC3)n2)c1` [Compound 7], the values for the AC50 on Human ALDH3A1 and at OE19 (3A1) were 320 nM and 880 nM, respectively. For the same compound, the Efficacy on Human ALDH3A1 (Table S4, biochemical) is -97.93. At Human ALDH3A1 (setting [1]), this compound came in with a CC-v2 of -1.1. Also, the Cell_Efficacy at OE19 (3A1) (Table S4, OE19 cells) is reported as -93.28. At OE19 (3A1) (Table S4, cellular curve class), the Cell_CC-v2 is listed as -1.1.
As for `C[S+](=O)([O-])c1cccc(CNC(=O)c2csc(N3CCN(c4cccc(C(F)(F)F)c4)CC3)n2)c1` [NCGC01407971-01], the values for the AC50 at Human ALDH3A1 and at OE19 (3A1) were 891 nM and 251 nM, respectively. For the same compound, the Efficacy at Human ALDH3A1 (Table S5, biochemical) is recorded as -53.81. The same compound had a CC-v2 on Human ALDH3A1 (setting [2]) of -1.2. For the same compound, on OE19 (3A1) (Table S5, OE19 cells), the Cell_Efficacy is -83.43. This compound also gave a Cell_CC-v2 at OE19 (3A1) (Table S5, cellular curve class) of -1.1.
Take `O=C(NCCc1cccc(OCCCc2ccccc2)c1)c1csc(N2CCN(c3cccc(C(F)(F)F)c3)CC2)n1` [NCGC01407986-01]: the AC50 came out at 562 nM at Human ALDH3A1 and 501 nM on OE19 (3A1). For the same compound, the Efficacy at Human ALDH3A1 (Table S5, biochemical) is -31.39. In addition, the CC-v2 at Human ALDH3A1 (setting [2]) is -1.2. On OE19 (3A1) (Table S5, OE19 cells), this compound registered a Cell_Efficacy of -92.16. At OE19 (3A1) (Table S5, cellular curve class), the Cell_CC-v2 is -1.1.
Consider `O=C(NCc1ccc(N2CCNC2=O)cc1)c1csc(N2CCN(c3cccc(C(F)(F)F)c3)CC2)n1` [NCGC01407779-01], for which the figures for the AC50 at Human ALDH3A1 and on OE19 (3A1) were 794 nM and 2240 nM, respectively. Also, the Efficacy at Human ALDH3A1 (Table S5, biochemical) is recorded as -73.90. Also, on Human ALDH3A1 (setting [2]), the CC-v2 is -1.2. Moreover, the Cell_Efficacy on OE19 (3A1) (Table S5, OE19 cells) is recorded as -130.58. In addition, the Cell_CC-v2 on OE19 (3A1) (Table S5, cellular curve class) is recorded as -1.1.
Regarding `Cc1cccc(CNC(=O)c2csc(N3CCN(c4cccc(OCc5ccc(Cl)cc5)c4)CC3)n2)c1` [NCGC01211114-01], the values for the AC50 on Human ALDH3A1 and at OE19 (3A1) were 460 nM and 1570 nM, respectively. Also, at Human ALDH3A1 (Table S4, biochemical), the Efficacy is -48.74. This compound had a CC-v2 at Human ALDH3A1 (setting [1]) of -1.2. At OE19 (3A1) (Table S4, OE19 cells), this compound displayed a Cell_Efficacy of -79.67. Besides, on OE19 (3A1) (Table S4, cellular curve class), the Cell_CC-v2 was -1.1.
As to `Cc1cccc(CNC(=O)c2csc(N3CCN(c4ncccc4C(F)(F)F)CC3)n2)c1` [NCGC01210654-01], the half-maximal activity concentration (AC50) at Human ALDH3A1 was 1020 nM; on OE19 (3A1) it was 35100 nM. The compound further displayed an Efficacy on Human ALDH3A1 (Table S4, biochemical) of -95.69. The same compound came in with a CC-v2 at Human ALDH3A1 (setting [1]) of -1.1. The compound further yielded a Cell_Efficacy at OE19 (3A1) (Table S4, OE19 cells) of -81.56. The compound also yielded a Cell_CC-v2 on OE19 (3A1) (Table S4, cellular curve class) of -2.2.
As for `O=C(NCc1ccc2c(c1)COC2=O)c1csc(N2CCN(c3cccc(C(F)(F)F)c3)CC2)n1` [NCGC01396481-01], the AC50 on Human ALDH3A1 is 39.8 nM; at OE19 (3A1), 342 nM. Also, the Efficacy at Human ALDH3A1 (Table S5, biochemical) is reported as -98.89. At Human ALDH3A1 (setting [2]), this compound showed a CC-v2 of -1.1. On OE19 (3A1) (Table S5, OE19 cells), the Cell_Efficacy is reported as -73.69. The compound also came in with a Cell_CC-v2 on OE19 (3A1) (Table S5, cellular curve class) of -1.4.
Take `O=C(NCc1cccc(N2CCC2=O)c1)c1csc(N2CCN(c3cccc(C(F)(F)F)c3)CC2)n1` [Compound 20]: the figures for the AC50 at Human ALDH3A1 and at OE19 (3A1) were 63.1 nM and 10.8 nM, respectively. Also, the Efficacy at Human ALDH3A1 (Table S5, biochemical) is recorded as -96.26. The compound also yielded a CC-v2 at Human ALDH3A1 (setting [2]) of -1.1. In addition, the Cell_Efficacy on OE19 (3A1) (Table S5, OE19 cells) is given as -81.94. The Cell_CC-v2 at OE19 (3A1) (Table S5, cellular curve class) is on record as -1.2.
Regarding `COc1ccc(F)c(N2CCN(c3nc(C(=O)NCc4cccc(C)c4)cs3)CC2)c1` [NCGC01211189-01], the AC50 at Human ALDH3A1 was determined as 910 nM; on OE19 (3A1), 7850 nM. On Human ALDH3A1 (Table S4, biochemical), this compound returned an Efficacy of -85.97. The compound also showed a CC-v2 on Human ALDH3A1 (setting [1]) of -1.1. Besides, at OE19 (3A1) (Table S4, OE19 cells), the Cell_Efficacy is given as -96.01. The Cell_CC-v2 on OE19 (3A1) (Table S4, cellular curve class) is reported as -1.1.
Take `Cc1cccc(CNC(=O)c2csc(N3CCN(c4ccccc4Cl)CC3)n2)c1` [NCGC01211121-01]: the values for the concentration at half-maximal activity (AC50) on Human ALDH3A1 and at OE19 (3A1) were 910 nM and 12400 nM, respectively. The same compound showed an Efficacy on Human ALDH3A1 (Table S4, biochemical) of -88.53. The same compound yielded a CC-v2 on Human ALDH3A1 (setting [1]) of -1.1. The same compound returned a Cell_Efficacy on OE19 (3A1) (Table S4, OE19 cells) of -81.66. Moreover, at OE19 (3A1) (Table S4, cellular curve class), the Cell_CC-v2 is -1.3.
For the compound `Cc1cccc(CNC(=O)c2csc(N3CCN(c4ccc(OC(F)(F)F)cc4)CC3)n2)c1` [NCGC01211384-01], the AC50 on Human ALDH3A1 turned out to be 650 nM; at OE19 (3A1) it was 3930 nM. Further, at Human ALDH3A1 (Table S4, biochemical), the Efficacy is listed as -96.17. Moreover, the CC-v2 on Human ALDH3A1 (setting [1]) is -1.1. This compound came in with a Cell_Efficacy at OE19 (3A1) (Table S4, OE19 cells) of -82.59. This compound had a Cell_CC-v2 on OE19 (3A1) (Table S4, cellular curve class) of -1.1.
